US7816353B2 (Exelixis, Inc., priority 2003, dated 2010)

Target: T1, p70S6K (Homo sapiens, UniProt P23443, T412E)
T1 construct: human p70S6 kinase domain residues 1-421, containing a T412E mutation; made in house
Assay: p70S6 Kinase Assay (Luciferase-Coupled Chemiluminescent Kinase assay, LCCA)
Format: biochemical
Settings: human p70S6 kinase domain residues 1-421, T412E; 5 μM ATP; read-out: p70S6K IC50
Experimental: Kinase activity and compound inhibition are investigated using one or more of the three assay formats described below. The ATP concentrations for each assay are selected to be close to the Michaelis-Menten constant (KM) for each individual kinase. Dose-response experiments are performed at 10 different inhibitor concentrations in a 384-well plate format. […] Y=Min+(Max−Min)/(1+(X/IC50)^H) Equation (2) p70S6 Kinase Assay
Biochemical activity of p70S6 kinase was assessed using a Luciferase-Coupled Chemiluminescent Kinase assay (LCCA) format. Kinase activity was measured as the percent ATP remaining following the kinase reaction. Remaining ATP was detected by luciferase-luciferin-coupled chemiluminescence. […] The mixture is incubated at ambient temperature for 2 hours after which 20 μL luciferase-luciferin mix is added and the chemiluminescent signal read using a Wallac Victor^2 reader.

T1 sequence (P23443 1-421 T412E): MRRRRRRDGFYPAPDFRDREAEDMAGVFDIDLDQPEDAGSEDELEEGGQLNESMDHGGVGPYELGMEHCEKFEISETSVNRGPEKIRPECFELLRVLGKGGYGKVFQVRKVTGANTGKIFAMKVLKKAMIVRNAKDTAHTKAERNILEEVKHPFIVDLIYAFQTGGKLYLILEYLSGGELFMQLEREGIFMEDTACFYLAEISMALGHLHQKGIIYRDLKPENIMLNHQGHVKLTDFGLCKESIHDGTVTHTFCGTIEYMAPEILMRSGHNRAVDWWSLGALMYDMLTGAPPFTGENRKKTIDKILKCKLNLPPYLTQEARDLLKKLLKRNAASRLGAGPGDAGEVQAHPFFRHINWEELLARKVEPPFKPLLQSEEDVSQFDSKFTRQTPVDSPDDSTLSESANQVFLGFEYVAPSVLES

Which IC50 does the source give for `COC(=O)c1cc(NC(=O)[C@H](C)Nc2nc(N)nc(OC)c2C#N)cc(C(F)(F)F)c1` [Example 189, methyl 3-({N-[2-amino-5-cyano-6-(methyloxy)pyrimidin-4-yl]-L-alanyl}amino)-5-(trifluoromethyl)benzoate] here?
Its IC50 is greater than 2 µM.

How did the IC50 turn out when `CSc1nc(N)nc(N[C@@H](C)C(=O)Nc2cccc(N)c2)c1C#N` [Example 124, N^2-[2-amino-5-cyano-6-(methylthio)pyrimidin-4-yl]-N-(3-aminophenyl)-L-alaninamide] was run?
The IC50 was greater than 2 µM.

With `CSc1nc(N)nc(N[C@@H](CCC(N)=O)C(=O)Nc2cccc(C(F)(F)F)c2)c1C#N` [Example 139] as the molecule, how does the IC50 read?
The IC50 was 0.05 to 0.5 µM.

`CSc1nc(N)nc(N[C@@H](C)C(=O)Nc2cc(C(=O)NCCN(C)C)cc(C(F)(F)F)c2)c1C#N` [Example 125, 3-({N-[2-amino-5-cyano-6-(methylthio)pyrimidin-4-yl]-L-alanyl}amino)-N-[2-(dimethylamino)ethyl]-5-(trifluoromethyl)benzamide] was tested. Which IC50 did it give?
The IC50 was greater than 2 µM.

How did the IC50 turn out when `CSc1nc(N)nc(NCC(=O)Nc2cccc(C(F)(F)F)c2)c1/C=N/N` [Example 58, N^2-[2-amino-5-[(E)-hydrazonomethyl]-6-(methylthio)pyrimidin-4-yl]-N-[3-(trifluoromethyl)phenyl]glycinamide] was run?
The IC50 was 0.5 to 2 µM.

`CSc1nc(N)nc(N2CCC[C@@H]2C(=O)Nc2cccc(C(F)(F)F)c2)c1C#N` [Example 85, (R)-1-[2-amino-5-cyano-6-(methylthio)pyrimidin-4-yl]-N-[3-(trifluoromethyl)phenyl]prolinamide] was tested. Which IC50 did it give?
The IC50 was greater than 2 µM.

With `CCOc1nc(N)nc(N[C@@H](CCCNC(=O)OC(C)(C)C)C(=O)Nc2cccc(C(F)(F)F)c2)c1C#N` [Example 128, 1,1-dimethylethyl((4S)-4-{[2-amino-5-cyano-6-(ethyloxy)pyrimidin-4-yl]amino}-5-oxo-5-{[3-(trifluoromethyl)phenyl]amino}pentyl)carbamate] as the molecule, how does the IC50 read?
Its IC50 is greater than 2 µM.

With `CCOc1nc(N)nc(N[C@@H](C)C(=O)Nc2cc(C(=O)NCCCN3CCCC3)cc(C(F)(F)F)c2)c1C#N` [Example 158, 3-({N-[2-amino-5-cyano-6-(ethyloxy)pyrimidin-4-yl]-L-alanyl}amino)-N-(3-pyrrolidin-1-ylpropyl)-5-(trifluoromethyl)benzamide] as the molecule, how does the IC50 read?
The IC50 was greater than 2 µM.

Which IC50 does the source give for `CSc1nc(NC(C)=O)nc(SCC(=O)Nc2cccc(C(F)(F)F)c2)c1C#N` [Example 41, 2-{[2-(acetylamino)-5-cyano-6-(methylthio)pyrimidin-4-yl]thio}-N-[3-(trifluoromethyl)phenyl]acetamide] here?
Its IC50 is 0.05 to 0.5 µM.

`CSc1nc(N)nc(OCC(=O)Nc2cccc(C(F)(F)F)c2)c1C=O` [Example 46, 2-{[2-amino-5-formyl-6-(methylthio)pyrimidin-4-yl]oxy}-N-[3-(trifluoromethyl)phenyl]acetamide] was tested. Which IC50 did it give?
Its IC50 is 0.05 to 0.5 µM.

For `CCOc1nc(N)nc(N(C)[C@@H](CCCCNC(=O)OCc2ccccc2)C(=O)Nc2cccc(C(F)(F)F)c2)c1C#N` [Example 162, N~2~-[2-amino-5-cyano-6-(ethyloxy)pyrimidin-4-yl]-N~2~-methyl-N~6~-{[(phenylmethyl)oxy]carbonyl}-N-[3-(trifluoromethyl)phenyl]-L-lysinamide], which IC50 is on record?
Its IC50 is greater than 2 µM.

With `COc1nc(N)nc(N[C@@H](CN2CCOCC2)C(=O)Nc2cccc(C(F)(F)F)c2)c1C#N` [Example 192, N~2~-[2-amino-5-cyano-6-(methyloxy)pyrimidin-4-yl]-3-morpholin-4-yl-N-[3-(trifluoromethyl)phenyl]-L-alaninamide] as the molecule, how does the IC50 read?
Its IC50 is greater than 2 µM.

With `CSc1nc(N)nc(N[C@@H](CCCNC(C)=O)C(=O)Nc2cccc(C(F)(F)F)c2)c1C#N` [Example 123, N^5-acetyl-N^2-[2-amino-5-cyano-6-(methylthio)pyrimidin-4-yl]-N-[3-(trifluoromethyl)phenyl]-L-ornithinamide] as the molecule, how does the IC50 read?
The IC50 was greater than 2 µM.

How did the IC50 turn out when `CSc1nc(N)nc(NNC(=O)Nc2cccc(C(F)(F)F)c2)c1C#N` [Example 64, 2-[2-amino-5-cyano-6-(methylthio)pyrimidin-4-yl]-N-[3-(trifluoromethyl)phenyl]hydrazinecarboxamide] was run?
The IC50 was 0.5 to 2 µM.

With `CCOc1nc(N)nc(N[C@@H](CCC(=O)O)C(=O)Nc2cccc(C(F)(F)F)c2)c1C#N` [Example 173, N~2~-[2-amino-5-cyano-6-(ethyloxy)pyrimidin-4-yl]-N-[3-(trifluoromethyl)phenyl]-L-alpha-glutamine] as the molecule, how does the IC50 read?
Its IC50 is greater than 2 µM.

For `CSc1nc(N)nc(N(CCN(C)C)CC(=O)Nc2cccc(C(F)(F)F)c2)c1C#N` [Example 87, N^2-[2-amino-5-cyano-6-(methylthio)pyrimidin-4-yl]-N^2-[2-(dimethylamino)ethyl]-N-[3-(trifluoromethyl)phenyl]glycinamide], which IC50 is on record?
The IC50 was greater than 2 µM.

`CCCOc1nc(N)nc(N[C@@H](C)C(=O)Nc2cccc(C(F)(F)F)c2)c1C#N` [Example 115, N^2-[2-amino-5-cyano-6-(propyloxy)pyrimidin-4-yl]-N-[3-(trifluoromethyl)phenyl]-L-alaninamide] was tested. Which IC50 did it give?
Its IC50 is 0.05 to 0.5 µM.

`CCOc1nc(N)nc(N[C@@H](CCCNC(=N)N)C(=O)Nc2cccc(C(F)(F)F)c2)c1C#N` [Example 152, N~2~-[2-amino-5-cyano-6-(ethyloxy)pyrimidin-4-yl]-N-[3-(trifluoromethyl)phenyl]-L-argininamide] was tested. Which IC50 did it give?
Its IC50 is greater than 2 µM.

With `CSc1cc(SCC(=O)Nc2cccc(C(F)(F)F)c2)nc(N)n1` [Example 48, 2-{[2-amino-6-(methylthio)pyrimidin-4-yl]thio}-N-[3-(trifluoromethyl)phenyl]acetamide] as the molecule, how does the IC50 read?
Its IC50 is 0.05 to 0.5 µM.

`COc1nc(N)nc(N[C@@H](CN(C)C)C(=O)Nc2cccc(C(F)(F)F)c2)c1C#N` [Example 178, N~2~-[2-amino-5-cyano-6-(methyloxy)pyrimidin-4-yl]-3-(dimethylamino)-N-[3-(trifluoromethyl)phenyl]-L-alaninamide] was tested. Which IC50 did it give?
Its IC50 is greater than 2 µM.

`CSc1nc(N)nc(N(C)N(C)C(=O)Nc2cccc(C(F)(F)F)c2)c1C#N` [Example 93, 2-[2-amino-5-cyano-6-(methylthio)pyrimidin-4-yl]-1,2-dimethyl-N-[3-(trifluoromethyl)phenyl]hydrazinecarboxamide] was tested. Which IC50 did it give?
Its IC50 is greater than 2 µM.

For `COc1ccc(C(F)(F)F)cc1NC(=O)CSc1nc(N)nc(SC)c1C#N` [Example 54, 2-{[2-mino-5-cyano-6-(methylthio)pyrimidin-4-yl]thio}-N-[2-(methyloxy)-5-(trifluoromethyl)phenyl]acetamide], which IC50 is on record?
Its IC50 is 0.5 to 2 µM.

Which IC50 does the source give for `CSc1nc(N)nc(N(C)[C@@H](C)c2nc3ccc(C(F)(F)F)cc3[nH]2)c1C#N` [Example 104, 2-amino-4-(methylthio)-6-(methyl{(1S)-1-[6-(trifluoromethyl)-1H-benzimidazol-2-yl]ethyl}amino)pyrimidine-5-carbonitrile] here?
Its IC50 is greater than 2 µM.

With `C[C@H](Nc1nc(N)nc([S+](C)[O-])c1C#N)C(=O)Nc1cccc(C(F)(F)F)c1` (stereo partly drawn) [Example 74, N^2-[2-amino-5-cyano-6-(methylsulfinyl)pyrimidin-4-yl]-N-[3-(trifluoromethyl)phenyl]-L-alaninamide] as the molecule, how does the IC50 read?
Its IC50 is greater than 2 µM.

Which IC50 does the source give for `CCOc1nc(N)nc(N(C)[C@@H](C)C(=O)Nc2cccc(Br)c2)c1C#N` [Example 174, N~2~-[2-amino-5-cyano-6-(ethyloxy)pyrimidin-4-yl]-N-(3-bromophenyl)-N~2~-methyl-L-alaninamide] here?
The IC50 was greater than 2 µM.

For `CSc1nc(N)nc(SCC(=O)Nc2cc(C(F)(F)F)cc(C(F)(F)F)c2)c1C#N` [Example 77, 2-{[2-amino-5-cyano-6-(methylthio)pyrimidin-4-yl]thio}-N-[3,5-bis(trifluoromethyl)phenyl]acetamide], which IC50 is on record?
Its IC50 is greater than 2 µM.

How did the IC50 turn out when `Nc1nc(SCC(=O)Nc2cccc(C(F)(F)F)c2)c(CO)c(Sc2ccccc2)n1` [Example 52] was run?
Its IC50 is 0.05 to 0.5 µM.

`CSc1nc(N)nc(N[C@@H](COCc2ccccc2)C(=O)Nc2cccc(C(F)(F)F)c2)c1C#N` [Example 183, N~2~-[2-amino-5-cyano-6-(methylthio)pyrimidin-4-yl]-O-(phenylmethyl)-N-[3-(trifluoromethyl)phenyl]-L-serinamide] was tested. Which IC50 did it give?
The IC50 was greater than 2 µM.

Which IC50 does the source give for `CCOc1nc(N)nc(N(C)[C@@H](C)C(=O)Nc2cccc(C(F)(F)F)c2)c1C#N` [Example 121, N^2-[2-amino-5-cyano-6-(ethyloxy)pyrimidin-4-yl]-N^2-methyl-N-[3-(trifluoromethyl)phenyl]-L-alaninamide] here?
The IC50 was greater than 2 µM.

How did the IC50 turn out when `CCOc1nc(N)nc(N[C@@H](CN2CCOCC2)C(=O)Nc2cccc(C(F)(F)F)c2)c1C#N` [Example 193, N~2~-[2-amino-5-cyano-6-(ethyloxy)pyrimidin-4-yl]-3-morpholin-4-yl-N-[3-(trifluoromethyl)phenyl]-L-alaninamide] was run?
Its IC50 is greater than 2 µM.

`CSc1nc(N)nc(N[C@@H](CCC(=O)OCc2ccccc2)C(=O)Nc2cccc(C(F)(F)F)c2)c1C#N` [Example 182, phenylmethyl N~2~-[2-amino-5-cyano-6-(methylthio)pyrimidin-4-yl]-N-[3-(trifluoromethyl)phenyl]-L-alpha-glutaminate] was tested. Which IC50 did it give?
Its IC50 is greater than 2 µM.

`CCOc1nc(N)nc(N[C@@H](CCCN2CCOCC2)C(=O)Nc2cccc(C(F)(F)F)c2)c1C#N` [Example 168, N~2~-[2-amino-5-cyano-6-(ethyloxy)pyrimidin-4-yl]-5-morpholin-4-yl-N-[3-(trifluoromethyl)phenyl]-L-norvalinamide] was tested. Which IC50 did it give?
The IC50 was greater than 2 µM.

Same assay, conditions: p70S6K IC50, human p70S6 kinase domain residues 1-421, T412E; 5 μM ATP

For `CSc1nc(N)nc(O[C@@H](C)C(=O)Nc2cccc(C(F)(F)F)c2)c1C#N` [Example 42, (2S)-2-{[2-amino-5-cyano-6-(methylthio)pyrimidin-4-yl]oxy}-N-[3-(trifluoromethyl)phenyl]propanamide], which IC50 is on record?
Its IC50 is 0.05 to 0.5 µM.
